Where a name gives a salt, the structure may show the parent alone. Read-outs that look alike come from different tables or passages of the source.
What was measured:
E. coli ATCC 25992 = test: In vitro MIC, agar dilution; assay type: cell-based; conditions: for MIC: Escherichia coli, ATCC25992, read-out: minimum inhibitory concentration (MIC)
How it was run: (§1)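 Spots of about 10^4 cfu of log-phase culture were applied, and plates were incubated 16-20 h at 35-36 °C. MIC was the lowest concentration inhibiting growth.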

E. faecalis ATCC 29212 = test: In vitro MIC, agar dilution; assay type: cell-based; conditions: for MIC: Enterococcus faecalis, ATCC29212, read-out: minimum inhibitory concentration (MIC)
How it was run: as §1

E. faecalis VanB(Van^R) = test: In vitro MIC, agar dilution; assay type: cell-based; conditions: for MIC: Enterococcus faecalis, read-out: minimum inhibitory concentration (MIC)
How it was run: as §1

E. faecium A491(Amp^R) = test: In vitro MIC, agar dilution; assay type: cell-based; conditions: for MIC: Enterococcus faecium, read-out: minimum inhibitory concentration (MIC)
How it was run: as §1

E. faecium ATCC 35667 = test: In vitro MIC, agar dilution; assay type: cell-based; conditions: for MIC: Enterococcus faecium, ATCC35667, read-out: minimum inhibitory concentration (MIC)
How it was run: as §1

E. faecium VanA(Van^R) = test: In vitro MIC, agar dilution; assay type: cell-based; conditions: for MIC: Enterococcus faecium, read-out: minimum inhibitory concentration (MIC)
How it was run: as §1

P. aeruginosa ATCC 27853 = test: In vitro MIC, agar dilution; assay type: cell-based; conditions: for MIC: Pseudomonas aeruginosa, ATCC27853, read-out: minimum inhibitory concentration (MIC)
How it was run: as §1

[1] = test system: S. aureus 76(Meth^R)(lac^+); test: In vitro MIC, agar dilution; assay type: cell-based; conditions: for MIC: Staphylococcus aureus, read-out: minimum inhibitory concentration (MIC)
How it was run: as §1

[2] = test system: S. aureus ATCC 13709(Meth^S); test: In vitro MIC, agar dilution; assay type: cell-based; conditions: for MIC: Staphylococcus aureus, ATCC13709, S. aureus ATCC 13709(Meth^S), read-out: minimum inhibitory concentration (MIC)
How it was run: as §1

S. aureus ATCC 29213 = test: In vitro MIC, agar dilution; assay type: cell-based; conditions: for MIC: Staphylococcus aureus, ATCC29213, read-out: minimum inhibitory concentration (MIC)
How it was run: as §1

[3] = test system: S. aureus ATCC 33593(Meth^R); test: In vitro MIC, agar dilution; assay type: cell-based; conditions: for MIC: Staphylococcus aureus, ATCC33593, read-out: minimum inhibitory concentration (MIC)
How it was run: as §1

[4] = test system: S. aureus PC1(Meth^S)(lac^+); test: In vitro MIC, agar dilution; assay type: cell-based; conditions: for MIC: Staphylococcus aureus, read-out: minimum inhibitory concentration (MIC)
How it was run: as §1

[5] = test system: S. aureus Spain #356(Meth^R); test: In vitro MIC, agar dilution; assay type: cell-based; conditions: for MIC: Staphylococcus aureus, read-out: minimum inhibitory concentration (MIC)
How it was run: as §1

[6] = test system: S. haemolyticus 05(Meth^R); test: In vitro MIC, agar dilution; assay type: cell-based; conditions: for MIC: Staphylococcus haemolyticus, read-out: minimum inhibitory concentration (MIC)
How it was run: as §1

[7] = test system: S. aureus Col(Meth^R)(lac^-); test: In vitro MIC, agar dilution; assay type: cell-based; conditions: for MIC: Staphylococcus aureus, read-out: minimum inhibitory concentration (MIC)
How it was run: (§2)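 Two-fold dilutions (128 to ≤0.25 μg/mL, in duplicate) were poured into Mueller-Hinton agar. Log-phase broth cultures were spot-inoculated at about 10^4 cfu per spot and incubated 35-36°C for 16-20 hours; the MIC was the lowest concentration inhibiting growth. Col is a high-level PBP2a producer; Col 8A is its isogenic PBP2a-lacking partner.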

[8] = test system: S. aureus Col8A(Meth^S)(lac^-); test: In vitro MIC, agar dilution; assay type: cell-based; conditions: S. aureus Col8A(Meth^S)(lac^-); for MIC: Staphylococcus aureus, read-out: minimum inhibitory concentration (MIC)
How it was run: as §2

[9] = test system: S. aureus strain ATCC 13709 (methicillin-susceptible); test: Murine model for lethal bacteremic peritonitis; assay type: in vivo, female Swiss-Webster mice; set-up: ED50: unit: mg/kg; conditions: SC, 72 h; for responders at 0.3125 mg/kg / responders at 0.625 mg/kg / responders at 2.5 mg/kg / responders at 5 mg/kg: read-out: Survivors; for responders at 1.25 mg/kg: read-out: Survivors (converted); for ED50: two equal doses, IP challenge
How it was run: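 Female Swiss-Webster mice were challenged IP with an LD100 inoculum in 7% hog gastric mucin, then given test drug subcutaneously in twofold increments (0.01–512 mg/kg) as two equal doses at challenge and 2 h later, 10 mice per group. Survival was scored at 72 h; PD50 (total mg/kg) was derived by probit.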

[10] = Staphylococcus aureus, ATCC13709, Dose 0.3125 mg/kg
[11] = Staphylococcus aureus, ATCC13709, Dose 0.625 mg/kg
[12] = Staphylococcus aureus, ATCC13709, Dose 1.25 mg/kg
[13] = Staphylococcus aureus, ATCC13709, Dose 2.5 mg/kg
[14] = Staphylococcus aureus, ATCC13709
[15] = Staphylococcus aureus, ATCC13709, read-out: ED50

`NC(=O)[C@@H](N)CSCc1cnccc1SC1=C(C(=O)O)N2C(=O)[C@@H](NC(=O)/C(=N\O)c3nc(N)sc3Cl)[C@H]2SC1` [Cmpd 59, (7R)-7-[(Z)-2-(2-amino-5-chlorothiazol-4-yl)-2-(hydroxyimino)acetamido]-3-(3-(2R-2-carboxamido-2-aminoethylthiomethyl)pyrid-4-ylthio)-3-cephem-4-carboxylate, trifluoroacetic acid salt] gave an MIC (E. coli ATCC 25992) of 8 µg/mL, an MIC (E. faecalis ATCC 29212) of 0.5 µg/mL and an MIC (E. faecalis VanB(Van^R)) of 0.5 µg/mL. For the same compound, the MIC (E. faecium A491(Amp^R)) was 16 µg/mL, the MIC (E. faecium ATCC 35667) was 1 µg/mL and the MIC (E. faecium VanA(Van^R)) was 2 µg/mL. For the same compound, the MIC (P. aeruginosa ATCC 27853) was over 32 µg/mL, the MIC [1] was 2 µg/mL and the MIC [2] was 0.13 µg/mL. The MIC (S. aureus ATCC 29213) was 0.5 µg/mL, the MIC [3] was 2 µg/mL and the MIC [4] was 0.5 µg/mL. For the same compound, the MIC [5] was 4 µg/mL, the MIC [6] was 4 µg/mL and the MIC [7] was 2 µg/mL. It also gave an MIC [8] of 0.25 µg/mL, a responders at 0.3125 mg/kg [9, 10] of 40% and a responders at 0.625 mg/kg [9, 11] of 60%. It also gave a responders at 1.25 mg/kg [9, 12] of 40%, a responders at 2.5 mg/kg [9, 13] of 40% and a responders at 5 mg/kg [9, 14] of 100%. It also gave an ED50 [9, 15] of 0.81 mg/kg.

Work on `Nc1nc(/C(=N/O)C(=O)N[C@@H]2C(=O)N3C(C(=O)O)=C(Sc4ccncc4SCCNC=O)CS[C@H]23)c(Cl)s1` [Cmpd 64, (7R)-7-[(Z)-2-(2-amino-5-chlorothiazol-4-yl)-2-(hydroxyimino)acetamido]-3-(3-(N-formylaminoethylthio)pyrid-4-ylthio)-3-cephem-4-carboxylate, trifluoroacetic acid salt] yielded an MIC (E. coli ATCC 25992) of 8 µg/mL, an MIC (E. faecalis ATCC 29212) of 0.25 µg/mL and an MIC (E. faecalis VanB(Van^R)) of 0.5 µg/mL. The MIC (E. faecium A491(Amp^R)) was 16 µg/mL, the MIC (E. faecium ATCC 35667) was 1 µg/mL and the MIC (E. faecium VanA(Van^R)) was 2 µg/mL. For the same compound, the MIC (P. aeruginosa ATCC 27853) was over 32 µg/mL, the MIC [1] was 4 µg/mL and the MIC [2] was 0.25 µg/mL. The MIC (S. aureus ATCC 29213) was 0.25 µg/mL, the MIC [3] was 2 µg/mL and the MIC [4] was 0.5 µg/mL. For the same compound, the MIC [5] was 4 µg/mL, the MIC [6] was 4 µg/mL and the MIC [7] was 2 µg/mL. The MIC [8] was 0.25 µg/mL, the responders at 0.3125 mg/kg [9, 10] was 10% and the responders at 0.625 mg/kg [9, 11] was 10%. It also gave a responders at 1.25 mg/kg [9, 12] of 40%, a responders at 2.5 mg/kg [9, 13] of 40% and a responders at 5 mg/kg [9, 14] of 80%. For the same compound, the ED50 [9, 15] was 2.27 mg/kg.

“(7R)-7-[(Z)-2-(aminothiazol-4-yl)-2-(hydroxyimino)acetamido]-3-[(methylaminoethylaminoethylthiomethyl)-1,2,3-thiadiazol-5-ylthio]-3-cephem-4-carboxylate, trifluoroacetic acid salt [Cmpd 11]” was tested, and the “minimum inhibitory concentration (MIC)” value (E. coli ATCC 25992) was 8 µg/mL, the “minimum inhibitory concentration (MIC)” value (E. faecalis ATCC 29212) was 0.25 µg/mL and the “minimum inhibitory concentration (MIC)” value (E. faecalis VanB(Van^R)) was 0.5 µg/mL. For the same compound, the “minimum inhibitory concentration (MIC)” value (E. faecium A491(Amp^R)) was over 32 µg/mL, the “minimum inhibitory concentration (MIC)” value (E. faecium ATCC 35667) was 2 µg/mL and the “minimum inhibitory concentration (MIC)” value (E. faecium VanA(Van^R)) was 4 µg/mL. For the same compound, the “minimum inhibitory concentration (MIC)” value (P. aeruginosa ATCC 27853) was over 32 µg/mL, the “minimum inhibitory concentration (MIC)” value [1] was 8 µg/mL and the “minimum inhibitory concentration (MIC)” value ([2]; S. aureus ATCC 13709(Meth^S)) was 0.5 µg/mL. For the same compound, the “minimum inhibitory concentration (MIC)” value (S. aureus ATCC 29213) was 0.5 µg/mL, the “minimum inhibitory concentration (MIC)” value [3] was 4 µg/mL and the “minimum inhibitory concentration (MIC)” value [4] was 1 µg/mL. For the same compound, the “minimum inhibitory concentration (MIC)” value [5] was 8 µg/mL, the “minimum inhibitory concentration (MIC)” value [6] was 4 µg/mL and the “minimum inhibitory concentration (MIC)” value [7] was 4 µg/mL. The “minimum inhibitory concentration (MIC)” value [8] was 1 µg/mL, the Survivors ([9]; Dose 0.156 mg/kg) was 1/10 and the Survivors ([9]; Dose 0.3125 mg/kg) was 1/10. The Survivors ([9]; Dose 0.625 mg/kg) was 3/10, the Survivors ([9]; Dose 1.25 mg/kg) was 5/10 and the Survivors ([9]; Dose 2.5 mg/kg) was 6/10. For the same compound, the ED50 [9] was 0.96 mg/kg.

— patent US6087355A, “Cephalosporin antibiotics” (Microcide Pharmaceuticals, Inc., priority 1996, dated 2000)
